Experimental data as given in patent US8933228B2, “Respiratory formulations and compounds for use therein” (Respivert, Ltd., priority 2010, dated 2015).

Tests used:
[1] = target: p38 MAPK alpha (MAPK14) (Homo sapiens (Human), UniProt Q16539); assay: Enzyme inhibition assay (FRET, Z-LYTE), p38 MAPK alpha via MAPKAP-K2 activation; format: biochemical; settings: read-out: Enzyme Profile: IC50 Values p38α
Protocol: (§1) The enzyme inhibitory activity of test compounds was determined by fluorescence resonance energy transfer (FRET) using synthetic peptides labelled with both donor and acceptor fluorophores (Z-LYTE, Invitrogen). Recombinant, phosphorylated p38 MAPK γ (MAPK12:Millipore) was diluted in HEPES buffer, mixed with compound at the desired final concentrations and incubated for 2 hr at RT. The FRET peptide (2 μM) and ATP (100 μM) were next added to the enzyme/compound mixture and incubated for 1 hr. Development reagent (protease) was added for 1 hr prior to detection in a fluorescence microplate reader. The site-specific protease only cleaves non-phosphorylated peptide and eliminates the FRET signal. Phosphorylation levels of each reaction were calculated using the ratio of coumarin emission (donor) over fluorescein emission (acceptor) with high ratios indicating high phosphorylation levels and low ratios indicating low phosphorylation levels.
For p38 MAPK alpha (MAPK14: Invitrogen), enzyme activity was evaluated indirectly by determining activation/phosphorylation of the down-stream molecule, MAPKAP-K2. The p38 MAPK a protein was mixed with compound for 2 hr at RT. […] Development reagent was then added and the mixture incubated for 1 hr before detection by fluorescence completed the assay protocol.
The enzyme inhibitory activity of compound was determined by fluorescence resonance energy transfer (FRET) using synthetic peptides labelled with both donor and acceptor fluorophores (Z′-LYTE, Invitrogen).

[2] = target: p38 MAPK γ (MAPK12) (Homo sapiens (Human), UniProt P53778); assay: Enzyme inhibition assay (FRET, Z-LYTE), p38 MAPK gamma; format: biochemical; settings: read-out: Enzyme Profile: IC50 Values p38γ
Protocol: as §1

[3] = target: HCK enzyme (Homo sapiens (Human), UniProt P08631); assay: HCK enzyme inhibition assay (FRET, Z'-LYTE); format: biochemical; settings: read-out: Enzyme Profile: IC50 Values HCK
[4] = target: cSrc enzyme (Homo sapiens (Human), UniProt P12931); assay: c-SRC enzyme inhibition assay (FRET, Z'-LYTE); format: biochemical; settings: read-out: Enzyme Profile: IC50 Values cSrc
[5] = system: TNFα release in THP-1 cells; assay: LPS-induced TNFα release in THP-1 cells; format: cell-based; settings: Homo sapiens; THP-1 cells, LPS 3 μg/mL, 4 hr; read-out: THP1 (LPS) TNFα IC50
Protocol: The inhibition of TNFα production was calculated at each concentration by comparison with vehicle control.

[6] = system: TNFα release in d-U937 cells; assay: LPS-induced TNFα release in d-U937 cells; format: cell-based; settings: Homo sapiens, dU937, LPS 0.1 μg/mL, 4 hr, relative to 10 μg/mL BIRB796, read-out: d-U937 (LPS) TNFα REC50
Protocol: (§2) U937 cells, a human monocytic cell line, were differentiated to macrophage-type cells by incubation with phorbol myristate acetate (PMA; 100 ng/mL) for 48 to 72 hr, whereupon the cells become adherent. […] Coli: O111:B4, Sigma) for 4 hr. The supernatant was collected for determination of TNFα and IL-8 concentrations by sandwich ELISA (Duo-set, R&D systems). […] The relative 50% effective concentration (REC50) was determined from the resultant concentration-response curve. The inhibition of IL-8 production was calculated at each concentration of test compound by comparison with vehicle control.

[7] = system: IL-8 release in d-U937 cells; assay: LPS-induced IL-8 release in d-U937 cells; format: cell-based; settings: Homo sapiens, dU937; d-U937 cells, LPS 0.1 μg/mL, 4 hr; read-out: d-U937 (LPS) IL-8 IC50
Protocol: as §2

[8] = system: ICAM-1 expression in BEAS2B cells; assay: Poly I:C-induced ICAM-1 induction in BEAS2B cells; format: cell-based; settings: Homo sapiens, BEAS-2B; BEAS2B cells, poly I:C 1 μg/mL, 18 hr; read-out: BEAS2B (polyIC) ICAM1 IC50
Protocol: Poly I:C (1 μg/mL) (Invivogene Ltd., San Diego, Calif.) was transfected into BEAS2B cells (human bronchial epithelial cells, ATCC) with Oligofectamine (Invitrogen, Carlsbad, Calif.). Cells were pre-incubated with final concentrations of test compounds for 2 hr and the level of ICAM1 expression on the cell surface was determined by cell-based ELISA. […] The cells were washed with PBS-Tween and incubated with the secondary antibody (HRP-conjugated anti-rabbit IgG, Dako Ltd., Glostrup, Denmark).

[9] = system: HRV16; assay: Rhinovirus-titre assay; format: cell-based, human rhinovirus; settings: HRV16; for inhibition at 0.04 µg/mL: Human rhinovirus sp., cell not marked b, test compounds 0.04 μg/mL per method (footnote b, 0.2 μg/mL), read-out: HRV titre (inhibitory %): % inhibition observed vs. HRV16 infection control
Protocol: MRC5 cells (human lung fibroblast, ATCC) were infected with 1 MOI (multiplicity of infection of 1.0) of HRV16 and incubated for 1 hr at 33° C. with gentle shaking to stimulate adsorption. The cells were then washed with PBS, fresh media was added and the cells were incubated for a further 96 hr. The supernatant was collected and 10-fold serial dilutions of virus containing supernatant were prepared. All titrations were performed by infecting confluent Hela cell monolayers with serially diluted supernatant (10^−1-10^−5) and assessing the cytopathic effect by visual inspection 4 days after infection. The amount of virus required to infect 50% of Hela cells was calculated in each treatment as TCID50. Test compounds (0.04 μg/mL) were added 2 hr before HRV infection and 1 hr after infection when non-infected HRV was washed out. The anti-HRV activity of each test compound was determined as the difference of the log TCID50 of HRV16 in the presence of the compound with the log TCID50 of HRV16 in the absence of compound. […]

[10] = system: Differentiated U937 cells; assay: MTT assay: cell viability; format: cell-based, human; settings: 1 μg/ml; for d-U937 MTT Assay 4 h: 5% FCS; for d-U937 MTT Assay 24 h: 10% FCS
Protocol: Differentiated U937 cells were pre-incubated with each test compound under two protocols: the first for 4 hr in 5% FCS and the second in 10% FCS for 24 h. The supernatant was replaced with 200 μL of new media and 10 μL of MTT stock solution (5 mg/mL) was added to each well. After incubation for 1 hr the media were removed, 200 μL of DMSO was added to each well and the plates were shaken lightly for 1 hr prior to reading the absorbance at 550 nm. The percentage loss of cell viability was calculated for each well relative to vehicle (0.5% DMSO) treatment. Consequently an apparent increase in cell viability for drug treatment relative to vehicle is tabulated as a negative percentage.

Row | IC50 [1] [nM] | IC50 [2] [nM] | IC50 [3] [nM] | IC50 [4] [nM] | IC50 [5] [nM] | EC50 [6] [nM] | IC50 [7] [nM] | SMILES | IC50 [8] [nM] | inhibition at 0.04 µg/mL [9] [%] | NBEC (HRV) HRV titre Relative anti-viral activity ([9]; at 0.04 μg/mL vs. pleconaril at 0.1 μg/mL) | d-U937 MTT Assay 4 h [10] | d-U937 MTT Assay 24 h [10]
1 | 2 | > 18000 | 9 | 22 | 161 | 40 | 71 | Cc1ccc(-n2nc(C3CC3)cc2NC(=O)Nc2ccc(Oc3ccnc4[nH]c(=O)cnc34)c3ccccc23)cc1 [Example 28, 1-(3-cyclopropyl-1-(p-tolyl)-1H-pyrazol-5-yl)-3-(4-((3-oxo-3,4-dihydropyrido[2,3-b]pyrazin-8-yl)oxy)naphthalen-1-yl)urea] | > 184 | 36 | – | − (− and + indicate the result is below and above the no significant effect threshold, respectively (<30% inhibition at a concentration of 1 μg/ml)) | − (− and + indicate the result is below and above the no significant effect threshold, respectively (<30% inhibition at a concentration of 1 μg/ml))
2 | 3 | 237 | 918 | 16 | 7.5 | 1.6 | 1.1 | CC(C)(C)c1cc(NC(=O)Nc2ccc(Oc3ccnc4[nH]c(=O)cnc34)c3ccccc23)n(-c2ccc(Cl)cc2)n1 [Example 27, 1-(3-(tert-butyl)-1-(4-chlorophenyl)-1H-pyrazol-5-yl)-3-(4-((3-oxo-3,4-dihydropyrido[2,3-b]pyrazin-8-yl)oxy)naphthalen-1-yl)urea] | 2.2 | 94 | – | − (− and + indicate the result is below and above the no significant effect threshold, respectively (<30% inhibition at a concentration of 1 μg/ml)) | − (− and + indicate the result is below and above the no significant effect threshold, respectively (<30% inhibition at a concentration of 1 μg/ml))
3 | 7 | 318 | 24 | 11 | 14 | 12 | 24 | CC(C)(C)c1cc(NC(=O)Nc2ccc(Oc3ccnc4[nH]c(=O)cnc34)c3ccccc23)n(-c2ccc(CO)cc2)n1 [Example 17, 1-(3-(tert-Butyl)-1-(4-(hydroxymethyl)phenyl)-1H-pyrazol-5-yl)-3-(4-((3-oxo-3,4-dihydropyrido[2,3-b]pyrazin-8-yl)oxy)naphthalen-1-yl)urea] | 14 | 36 | – | − (− and + indicate the result is below and above the no significant effect threshold, respectively (<30% inhibition at a concentration of 1 μg/ml)) | − (− and + indicate the result is below and above the no significant effect threshold, respectively (<30% inhibition at a concentration of 1 μg/ml))

More lines, now with the values behind:

Row | SMILES | IC50 [1] [nM] | IC50 [2] [nM] | IC50 [3] [nM] | IC50 [4] [nM] | IC50 [5] [nM] | EC50 [6] [nM] | IC50 [7] [nM] | IC50 [8] [nM] | inhibition at 0.04 µg/mL [9] [%] | NBEC (HRV) HRV titre Relative anti-viral activity ([9]; at 0.04 μg/mL vs. pleconaril at 0.1 μg/mL) | d-U937 MTT Assay 4 h [10] | d-U937 MTT Assay 24 h [10]
4 | CC(C)(C)c1cc(NC(=O)Nc2ccc(Oc3ccnc4[nH]c(=O)[nH]c34)c3ccccc23)n(-c2ccccc2)n1 [Example 2, 1-(3-tert-butyl-1-phenyl-1H-pyrazol-5-yl)-3-(4-(2-oxo-2,3-dihydro-1H-imidazo [4,5-b]pyridin-7-yloxy)naphthalen-1-yl) urea] | 5 | 67 | < 2 | 36 | 1.4 | 3 | 7.5 | 9.8 | 60 | 1 | − (− and + indicate the result is below and above the no significant effect threshold, respectively (<30% inhibition at a concentration of 1 μg/ml)) | − (− and + indicate the result is below and above the no significant effect threshold, respectively (<30% inhibition at a concentration of 1 μg/ml))
5 | COc1ccc(-n2nc(C(C)(C)C)cc2NC(=O)Nc2ccc(Oc3ccnc4[nH]c(=O)n(C)c34)c3ccccc23)cn1 [Example 24, 1-(3-(tert-butyl)-1-(6-methoxypyridin-3-yl)-1H-pyrazol-5-yl)-3-(4-((1-methyl-2-oxo-2,3-dihydro-1H-imidazo[4,5-b]pyridin-7-yl)oxy)naphthalen-1-yl)urea] | 7 | 126 | 5 | 16 | 4.4 | 1.3 | 11 | 12 | 91 | – | − (− and + indicate the result is below and above the no significant effect threshold, respectively (<30% inhibition at a concentration of 1 μg/ml)) | − (− and + indicate the result is below and above the no significant effect threshold, respectively (<30% inhibition at a concentration of 1 μg/ml))
6 | CC(C)(C)c1cc(NC(=O)Nc2ccc(Oc3ccnc4[nH]c(=O)cnc34)c3ccccc23)n(-c2ccc(S(C)(=O)=O)cc2)n1 [Example 31, 1-(3-(tert-butyl)-1-(4-(methylsulfonyl)phenyl)-1H-pyrazol-5-yl)-3-(4-((3-oxo-3,4-dihydropyrido[2,3-b]pyrazin-8-yl)oxy)naphthalen-1-yl)urea] | 5 | 47 | 3 | 6 | 62 | 60 | 68 | 178 | 8 | – | − (− and + indicate the result is below and above the no significant effect threshold, respectively (<30% inhibition at a concentration of 1 μg/ml)) | − (− and + indicate the result is below and above the no significant effect threshold, respectively (<30% inhibition at a concentration of 1 μg/ml))
7 | COc1ccc(-n2nc(C(C)(C)C)cc2NC(=O)Nc2ccc(Oc3ccnc4[nH]c(=O)n(C)c34)c3ccccc23)cc1 [Example 10] | 6 | 45 | 3 | 7 | 0.6 | 1.3 | 1 | 6 | 91 | – | − (− and + indicate the result is below and above the no significant effect threshold, respectively (<30% inhibition at a concentration of 1 μg/ml)) | − (− and + indicate the result is below and above the no significant effect threshold, respectively (<30% inhibition at a concentration of 1 μg/ml))
